Results as given in US7470821B2, “Aldolase-inhibiting aromatic compounds” (Valorisation-Recherche, Limited Partnership, priority 2003, dated 2008).
Several values for one entry are separate records, joined by “and”; a condition that tells them apart may be missing. Equal entries are not always repeated. Where two headings read alike, the source gives them in different places.

How the values were obtained:
[1] = target: T1, native (wild-type) rabbit muscle aldolase (Oryctolagus cuniculus, UniProt P00883); assay: UV-visible differential spectroscopy (method A) of aldolase-inhibitor complex formation; format: binding; settings: for ΔA relative to 432 nm / kapp: wild-type; for kapp: 431 nm
T1 construct: made in house
T1 sequence (P00883 2-364): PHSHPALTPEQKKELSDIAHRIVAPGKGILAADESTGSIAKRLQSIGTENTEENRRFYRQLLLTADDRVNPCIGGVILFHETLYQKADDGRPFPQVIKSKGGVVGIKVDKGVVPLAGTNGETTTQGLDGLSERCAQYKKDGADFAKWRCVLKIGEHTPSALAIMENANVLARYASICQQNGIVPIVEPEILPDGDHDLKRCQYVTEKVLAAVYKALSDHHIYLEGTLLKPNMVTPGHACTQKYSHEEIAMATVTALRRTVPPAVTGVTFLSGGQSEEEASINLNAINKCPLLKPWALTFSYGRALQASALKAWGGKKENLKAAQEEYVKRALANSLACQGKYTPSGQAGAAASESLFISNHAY
Experimental: Absorption spectra are measured using a Cary 1E Varian spectrophotometer at 25° C. The same TEA buffer is used for titrations and activity analyses. Absorption spectra are measured by two different methods, in particular as described in Gefflaut T. et al., 1986 (Bioorg. Med. Chem., 4:2043-2054) and Blonski C. et al., 1997 (Biochem J. 323:71-77).
For method A, absorption spectra are recorded as a function of time, between 250 and 500 nm, or at wavelengths corresponding to maximum or minimum absorption. Measurements are begun by adding FHN-P at varying final concentrations (0.1-1 mM) in the TEA buffer containing a fixed concentration of aldolase (10 μM of subunits). Measured absorption spectra for the enzyme complex are corrected using the absorbance of the buffer, the FHN—P, and the enzyme (measured separately). The differential absorption spectra thus obtained are used to calculate the value of the constants that define the formation of the aldolase-inhibitor complex.
The apparent first-order rate constant (kapp) and the maximum threshold variations of absorption (ΔAmax) are obtained for each test by applying the slow-binding absorption data to the first-order kinetic equation (or to both first-order kinetic mechanisms). The dissociation constant (Kd) for the Schiff base formed between the FHN-P and the aminocaproic acid is obtained from the absorption differences calculated at equilibrium by using the equation eqn.(2). The value of the dissociation constant (Ki) for the rapidly formed EI complex and that of the constant k2 correspond to the slow formation of the EI* complex resulting from analysis of the values of the first-order constants based on the equations eqn.(1) or eqn.(3).
The slight differences in band positions with the reaction model may be attributed to differences in the FHN-P protein environment in comparison to the model system. The changing spectra of absorbance differences coincides with two distinct first-order mechanisms. The rapid kinetics phase can be seen in a more significant change in absorbance and saturating behavior at a high inhibitor concentration, correlated with a total loss of enzyme activity. A slow kinetics phase can also be seen when the analyses are carried out at saturating concentrations of hexitol-P2 (10 mM). This slow kinetics phase, which corresponds to a constant thirty times weaker and which contributes to one-fourth of the final absorbance variation is not linked to the inhibition observed. At these saturating concentrations, the molar absorption coefficients relative to the linked FHN-P are calculated assuming that the for active aldolase sites are occupied: Δε431=3600±200 M^−1.cm^−1; Δε376=−2140±110 M^−1.cm^−1; Δε293=12480±650 M^−1.cm^−1; and Δε268=5080±250 M^−1.cm^−1.
Residues of lysine 106, 146 and 229 residues are located at the active aldolase sites and thus are candidates for causing inactivation by forming a Schiff base with the FHN-P. In order to identify which lysine is responsible for the differential absorbances in the presence of FHN-P, sporadic mutations of these lysine residues were created and named: K107M (Research Collaboratory for Structural Bioinformatics Protein Databank), K146M (Blonski C. et al., 1997, Biochem. J. 323:71-77) and […] (Research Collaboratory for Structural Bioinformatics Protein Databank). […] UV-visible differential spectroscopy (method A) was used to examine formation of the enzyme complex for each sporadic mutation in the presence of a fixed concentration of FHN-P (300 μM).

[2] = Titration of FHN-P by aminocaproic acid, Schiff base model reaction (method B); settings: 25° C
Experimental: Method B is used to titrate FHN-P by aminocaproic acid. For each analysis of TEA buffer containing a fixed concentration of FHN-P (10 μM), aminocaproic acid is added to obtain varying final concentrations (0.01-0.2 M). The differential absorption spectra, corresponding to the formation of a Schiff base, are recorded at different time intervals, then corrected with absorbance of the buffer, the aminocaproic acid and FHN-P (measured separately).
The apparent first-order rate constant (kapp) and the maximum threshold variations of absorption (ΔAmax) are obtained for each test by applying the slow-binding absorption data to the first-order kinetic equation (or to both first-order kinetic mechanisms). The dissociation constant (Kd) for the Schiff base formed between the FHN-P and the aminocaproic acid is obtained from the absorption differences calculated at equilibrium by using the equation eqn.(2). […]
The FHN-P and the ε-amino group of aldolase lysine residues were taken as the model for formation of the Schiff base, with the reaction of FHN-P (10 μM) with aminocaproic acid […] as a reference, and which was monitored by UV-visible differential spectroscopy. […]

[3] = formation of EI* complex, UV-visible differential spectroscopy
[4] = FHN-P 300 μM, first (rapid) phase
[5] = FHN-P 300 μM, second (slow) phase

O=Cc1c(O)ccc2cc(OP(=O)(O)O)ccc12 [FHN-P, 5-formyl-6-hydroxy-2-naphthylphosphate]
Ki ([1]; EI complex, UV-visible differential spectroscopy, FHN-P 0.1-1 mM, aldolase 10 μM subunits, 25° C, read-out: Ki): 125 ± 25 µM
Ki ([1]; calculated from the spectroscopy results, read-out: global inhibition constant Ki*): 0.025 µM and ~0.025 µM
k2 [1, 3]: 0.067 ± 0.004 min⁻¹
t1/2 [1, 3]: ~6 min
stoichiometry of FHN-P linked per tetrameric aldolase ([1]; maximum inhibition, EI* complex): 3.9-4.2 mols of FHN-P linked per tetrameric aldolase mole
Residual specific activity ([1]; wild-type aldolase, FHN-P 300 μM): ud (undetected)
ΔA relative to 432 nm [1, 4]: 100%
kapp [1, 4]: 0.045 ± 0.0025 min⁻¹
ΔA relative to 432 nm [1, 5]: 25%
kapp [1, 5]: 0.0015 ± 0.00035 min⁻¹
second-order constant k2nd ([2]; FHN-P 10 μM with aminocaproic acid): 0.002 ± 0.00017 M⁻¹ s⁻¹
Kd ([2]; Schiff base, TEA buffer, read-out: dissociation constant Kd of FHN-P-aminocaproic acid): 16000 ± 3000 µM
